In patent publication US4923990A, “Pyrindamycins A and B and duocarmycin A antibiotics derived from certain streptomyces culture” (priority 1986, dated 1990):
In brackets after ≈: the same amount, converted by molar mass. Like-named read-outs stand apart in the source and are kept apart here.

Tests used:
[1] = system: Sarcoma 180 solid tumor; assay type: in vivo, male ddY-strain mice; conditions: for Average Tumor Volume / T/C (average tumor volume treated/control): day 10
Procedure: (1) Therapeutic effect against Sarcoma 180 solid tumor
Six male ddY-strain mice each having a weight of about 20 g were used for each group as test animals, and 5×10^6 cells of Sarcoma 180 ascites tumor were implanted subcutaneously into the animals at the axilla. 0.2 ml of phosphate buffered saline (hereinafter referred to as PBS) containing DC-88A or DC-89Al at the concentrations shown in Tables 3 and 4 was administered once intraperitoneally 24 hours after implantation.
The composition of PBS was 0.8 g/dl NaCl, 0.02 g/dl KCl, […] Na2 HPO4 and 0.02 g/dl KH2 PO4 (pH 7.2).
The average tumor volume (mm^3) and T/C [T: average tumor volume of the groups treated with the test compound (mm^3), C: that of control group which received an intraperitoneal administration of 0.2 ml of PBS solution (mm^3)] were determined ten days after implantation.
For comparison, 0.2 ml of PBS containing mitomycin C was intraperitoneally administered to a group of animals 24 hours after tumor implantation.

[2] = system: lymphocytic leukemia P388 tumor; experiment: Therapeutic effect on lymphocytic leukemia P388 tumor; assay type: in vivo, male CDF1 mice
Procedure: (2) Therapeutic effect on lymphocytic leukemia P388 tumor
Five male CDF1 mice each having a weight of about 22 g were used for each group as test animals, and 1×10^6 cells of lymphocytic leukemia P388 tumor were implanted intraperitoneally into the test animals. […] The mean survival days after implantation and increased life span (T/C) (T: mean survival days for the treated groups, C: mean survival days for the control group) were calculated.
For comparison, 0.2 ml of PBS solution containing mitomycin C was intraperitoneally administered to a group of animals 24 hours after tumor implantation.

[3] = system: Bacillus subtilis No. 10707; experiment: Minimum inhibitory concentration, agar dilution method; assay type: cell-based; conditions: pH 7
Procedure: (§1) (A) Minimum inhibitory concentration against various microorganisms (MIC μg/ml)
(§2) The antibacterial activity was measured by the agar dilution method, using a medium (pH 7) prepared by dissolving 3 g of Bacto-Tryptone (Manufacturedby Difco Co., Ltd.), 3 g of meat extract, 1 g of yeast extract, 1 g of glucose and 16 g of agar in 1 l of water.

[4] = system: Klebsiella pneumoniae ATCC 10031; experiment: as above; assay type: cell-based; conditions: ATCC10031, pH 7
Procedure: as §1, §2

[5] = system: Salmonella typhi ATCC 9992; experiment: as above; assay type: cell-based; conditions: Salmonella enterica, pH 7
Procedure: as §1, §2

[6] = system: Staphylococcus aureus ATCC 6538P; experiment: as above; assay type: cell-based; conditions: ATCC6538P, pH 7
Procedure: as §1, §2

[7] = system: Shigella sonnei ATCC 9290; experiment: as above; assay type: cell-based; conditions: ATCC9290, pH 7
Procedure: as §1, §2

[8] = system: Escherichia coli ATCC 26; experiment: as above; assay type: cell-based; conditions: ATCC26, pH 7
Procedure: as §1, §2

[9] = Acute toxicity; conditions: mouse, in vivo, ip; intraperitoneal administration to mice
[10] = Solubility; assay type: physicochemical
[11] = methanol, ethanol, acetone, chloroform, ethyl acetate, DMSO

COC(=O)C1(C)NC2=C(C1=O)C13CC1CN(C(=O)c1cc4cc(OC)c(OC)c(OC)c4[nH]1)C3=CC2=O (stereo not drawn) [DC-88A, duocarmycin A]
Average Tumor Volume ([1]; 0.195 mg/kg ip once 24 h after implantation, control 2124.7): 1104.8 mm^3
T/C (average tumor volume treated/control) ([1]; 0.195 mg/kg ip once): 0.52
Average Tumor Volume ([1]; 0.39 mg/kg ip once 24 h after implantation, control 2124.7): 849.9 mm^3
T/C (average tumor volume treated/control) ([1]; 0.39 mg/kg ip once): 0.40
Average Tumor Volume ([1]; 0.78 mg/kg ip once 24 h after implantation, control 2124.7): 467.4 mm^3
T/C (average tumor volume treated/control) ([1]; 0.78 mg/kg ip once): 0.22
Increased Life Span (T/C) ([2]; 0.024 mg/kg, continuous administration for five days): 1.43
Mean Survival Days ([2]; 0.024 mg/kg, continuous administration for five days, control 11.0): 15.7 days
Increased Life Span (T/C) ([2]; 0.098 mg/kg ip once): 1.08
Mean Survival Days ([2]; 0.098 mg/kg ip once 24 h after implantation, control 11.0): 11.9 days
Increased Life Span (T/C) ([2]; 0.195 mg/kg ip once): 1.15
Mean Survival Days ([2]; 0.195 mg/kg ip once 24 h after implantation, control 11.0): 12.7 days
Increased Life Span (T/C) ([2]; 0.39 mg/kg ip once): 1.14
Mean Survival Days ([2]; 0.39 mg/kg ip once 24 h after implantation, control 11.0): 12.5 days
Increased Life Span (T/C) ([2]; 0.78 mg/kg ip once): 1.12
Mean Survival Days ([2]; 0.78 mg/kg ip once 24 h after implantation, control 11.0): 12.3 days
MIC [3]: 0.05 µg/mL (≈ 0.0985 µM)
MIC [4]: 0.5 µg/mL (≈ 0.985 µM)
MIC [5]: 10 µg/mL (≈ 19.7 µM)
MIC [6]: 0.05 µg/mL (≈ 0.0985 µM)
MIC [7]: 40 µg/mL (≈ 78.8 µM)
MIC [8]: 20 µg/mL (≈ 39.4 µM)
LD50 [9]: ~0.94 mg/kg
Solubility [10, 11]: Soluble
Solubility ([10]; water and hexane (n-hexane)): sparingly soluble

COC(=O)C1(C)Nc2c(O)cc3c(c2C1=O)CC(Cl)CN3C(=O)c1cc2cc(OC)c(OC)c(OC)c2[nH]1 (stereo not drawn) [DC-89Al, duocarmycin Cl]
Average Tumor Volume ([1]; 0.78125 mg/kg ip once 24 h after implantation, control 1828.0): 1409.5 mm^3
T/C (average tumor volume treated/control) ([1]; 0.78125 mg/kg ip once): 0.77
Toxic (printed in column Average Tumor Volume) ([1]; 1.5625 mg/kg ip once 24 h after implantation): Toxic
Increased Life Span (T/C) ([2]; 0.125 mg/kg ip once): 1.28
Mean Survival Days ([2]; 0.125 mg/kg ip once 24 h after implantation, control 10.7): 13.8 days
Increased Life Span (T/C) ([2]; 0.25 mg/kg ip once): 1.38
Mean Survival Days ([2]; 0.25 mg/kg ip once 24 h after implantation, control 10.7): 14.8 days
Increased Life Span (T/C) ([2]; 0.5 mg/kg ip once): 1.40
Mean Survival Days ([2]; 0.5 mg/kg ip once 24 h after implantation, control 10.7): 15.0 days
Increased Life Span (T/C) ([2]; 1 mg/kg ip once): 1.23
Mean Survival Days ([2]; 1 mg/kg ip once 24 h after implantation, control 10.7): 13.2 days
MIC [3]: 0.07 µg/mL (≈ 0.129 µM)
MIC [4]: 4.2 µg/mL (≈ 7.72 µM)
MIC [5]: > 100 µg/mL
MIC [6]: > 8.4 µg/mL
MIC [8]: > 100 µg/mL
LD50 [9]: ~1.17 mg/kg
Solubility [10, 11]: readily soluble
Solubility ([10]; water and hexane (n-hexane)): sparingly soluble

CO[C@@]12[C@H](COC(N)=O)C3=C(C(=O)C(C)=C(N)C3=O)N1C[C@@H]1N[C@@H]12 [Mitomycin C, mitomycin C, reference compound]
Average Tumor Volume ([1]; 6 mg/kg ip 24 h after implantation, control 1828.0): 499.6 mm^3
T/C (average tumor volume treated/control) ([1]; 6 mg/kg ip): 0.27
Increased Life Span (T/C) ([2]; 6.0 mg/kg ip): 1.60
Mean Survival Days ([2]; 6.0 mg/kg ip 24 h after implantation, control 10.7): 17.2 days
